Data published in patent US10537611B2, “Methods of treating lung cancer” (Five Prime Therapeutics, Inc., priority 2011, dated 2020).

Assay: Serum phosphate in rats
Assay type: in vivo, rat
Conditions: 50 mg/kg/day oral gavage, at 24 hour or 1 week of daily dosing
Procedure: In the first experiment, Sprague Dawley rats (Charles River Labs; N=5/group) were dosed with vehicle, 10, 50 or 200 mg/kg/qwk of FGFR1-ECD.339-Fc for four weekly doses and plasma concentrations of FGFR1-ECD.339-Fc were determined throughout the study by an ELISA based detection method.
In the second experiment, Sprague Dawley rats (Charles River Labs; N=5/group) were administered the FGFR kinase inhibitor PD173074 (Chemdea, Ridgewood, N.J.; 50 mg/kg/day) or vehicle control by oral gavage for 7 days; or were administered FGFR1-ECD.339-Fc (200 mg/kg) or appropriate vehicle weekly by intravenous administration. Blood samples were collected at the time points indicated and serum phosphate was determined at 24 and 168 hours post-initiation of dosing (Idexx laboratories, Westbrook, Mass.).

For `CCN(CC)CCCCNc1ncc2cc(-c3cc(OC)cc(OC)c3)c(NC(=O)NC(C)(C)C)nc2n1` [PD173043], the plasma phosphate levels was “significantly elevated”.
